The values below come from patent US20250154531A1, “METHODS FOR IMPROVED HOMOLOGOUS RECOMBINATION AND COMPOSITIONS THEREOF” (LIFE TECHNOLOGIES CORPORATION, priority 2017, published 2025).

For assay [1], the system named is genomic locus of beta-actin. In words: Insertion of puromycin-P2A-OFP into beta-actin locus in human primary T cells, OFP-positive cells by flow cytometry. In kind it is cell-based. The settings on record: 30 μM in culture medium after electroporation, 48 hours. The protocol:
Human peripheral blood mononuclear cells (PBMCs) were isolated from peripheral blood using Ficoll-Paque PLUS density gradient according to manufacturer's instructions. The human primary T cells were then isolated using DYNABEADS™ UNTOUCHED™ Human T Cells Kit and expanded using OPTMIZER™ CTS™ T-Cell Expansion SFM supplemented with 200 IU/mL of IL-2. The activation and expansion of human T cells were carried out using DYNABEADS™ Human T-Expander CD3/CD28 kit. On day 3 of activation, T cells were harvested for transfection.
For transfection of primary T cells, 1×10^5 cells were used per NEON® electroporation with voltage set at 1700V, pulse width set at 20 ms, and the number of pulses set at 1, respectively. To evaluate the effects of chemical modification on HDR efficiency, phosphorothioate or amine-modified nucleotides were added at specific positions of the oligonucleotides during chemical synthesis. The resulting modified oligonucleotides were then used to amplify the donor DNA. […] Cells were analyzed at 48 hours post transfection.
Linear ds- or ss-DNA donor could be degraded in vivo by exonucleases. […] At 48 hours post transfection, the percentages of OFP-positive cells were determined by flow cytometric analysis. […]
The disruption of NHEJ repair pathway is known to improve HDR efficiency. […] At 48 hours post transfection, we analyzed the cells by flow cytometry.
Background: Flow cytometry measures light scatter and fluorescence of single cells or particles in a stream.

A further assay deals with β-actin in NK-92. Briefly: One-step knock-in of OFP with NHEJ inhibitor in NK-92 cells. It is filed as cell-based. The conditions noted are these: NK-92, in media for two days after transfection. The protocol:
(§1) Various cell types (NK-92, THP-1, Jurkat) were transfected with 1 μg TRUECUT™ Cas9 Protein v2 and 250 ng of β-actin gRNA, and 0.25 μg, 0.5 μg, or 1 μg OFP-Puro in electroporation buffer. Electroporation was performed using the NEON® Transfection System. After electroporation, the cells were cultured in media containing NHEJ inhibitor (Ku0060648) for two days, then analyzed via FACS analysis for SSC-A and OFP.

The subject of assay [2] is T cell receptor (TRAC gRNA). In words: One-step knock-in with two Cas9/gRNA complexes in primary T cells, knock-out efficiency. In kind it is cell-based, human. The conditions noted are these: in media for two days after electroporation. Here is the method:
(§2) Human primary T cells were isolated and activated as in Example 10. On the third day after activation, cells were transfected with 1 μg TRUECUT™ Cas9 Protein v2 with 250 ng of β-actin gRNA, 1 μg TRUECUT™ Cas9 Protein v2 with 250 ng of a guide RNA targeting the T cell receptor (TRAC gRNA), and 1 μg OFP-Puro in electroporation buffer. Electroporation was performed using the NEON® Transfection System, program 24. After electroporation, the cells were cultured in media containing NHEJ inhibitor (Ku0060648) for two days, then analyzed via FACS analysis for SSC-A and OFP.

For another assay, the system named is β-actin. In words: One-step knock-in with two Cas9/gRNA complexes in primary T cells, knock-in efficiency. In kind it is cell-based, human. The settings on record: in media for two days after electroporation. The protocol: as §2
Another assay deals with β-actin in THP-1. Briefly: One-step knock-in of OFP with NHEJ inhibitor in THP-1 cells. The conditions noted are these: THP-1, in media for two days after transfection. It is filed as cell-based. Here is the method: as §1
For a further assay, the system named is β-actin in Jurkat. In words: One-step knock-in of OFP with NHEJ inhibitor in Jurkat cells. It is filed as cell-based. The conditions noted are these: in media for two days after transfection. Here is the method:
as §1

Turning to `O=c1cc(N2CCOCC2)oc2c1ccc1ccccc12` [Nu7026, 2-(4-Morpholinyl)-4H-naphthol[1,2-b]pyran-4-one], the “increase of the percentage of OFP-positive cells” value in assay [1] (amine-modified donor DNA) was roughly 2 fold; in assay [1] (unmodified donor DNA), “approximately 5 fold”.
Consider `CCN1CCN(CC(=O)Nc2ccc(-c3cccc4c(=O)cc(N5CCOCC5)oc34)c3sc4ccccc4c23)CC1` [Ku-0060648, 4-Ethyl-N-[4-[2-(4-morpholinyl)-4-oxo-4H-1-benzopyran-8-yl]-1-dibenzothienyl]-1-piperazineacetamide], for which the knock-in efficiency entry in the assay with β-actin in NK-92, in the assay with β-actin in THP-1 and in the assay with β-actin in Jurkat was “increased knock-in efficiency” each time. Besides, the “knock-out efficiency (Q3 and Q4)” value in assay [2] is on record as “without affecting knock-out efficiency”. Besides, in the assay on β-actin, the “knock-in efficiency (Q3)” value is listed as “increased knock-in efficiency”.
